{
  "source": "patent US20140057788A1",
  "about": "“METHODS OF INHIBITING ETHYLENE RESPONSES IN PLANTS USING DICYCLOPROPENE COMPOUNDS” (North Carolina State University, priority 2007, published 2014)",
  "key": {"[1]": {"test_system": "pea plants", "assay": "Effect on etiolated pea plant growth in the presence of ethylene", "format": "in vivo", "conditions": "pea plants grown in the presence of 1 ppm of ethylene, FIG. 1", "source_text": "FIG. 1. Effect of 1,6-dicyclopropenyl-hexane on etiolated plea plant growth."}, "[2]": {"assay": "Volatility", "format": "physicochemical"}, "[3]": {"test_system": "ethylene responses", "assay": "Anti-ethylene activity when applied as a gas", "format": "in vivo"}, "[4]": {"test_system": "bananas", "assay": "Protection of bananas from ethylene responses", "format": "in vivo, banana"}},
  "data": [
    {"smiles": "C1=C(CCCCCCC2=CC2)C1", "note": "[1,6-dicyclopropenyl-hexane]", "values": [
      {"measurement": "anti-ethylene activity (pea plant growth)", "setting": "[1]", "value": "significant anti-ethylene activity"},
      {"measurement": "volatility", "setting": "[2]", "value": "volatile"},
      {"measurement": "active concentration", "setting": "[3]; applied as a gas", "value": 0.3, "unit": "nL L^−1"},
      {"measurement": "efficiency at different temperatures", "setting": "[3]; in vivo", "value": "work efficiently at different temperatures"},
      {"measurement": "duration of protection from ethylene responses", "setting": "[4]", "value": "at least 42 days"}
    ]}
  ]
}
